How the values were obtained:
[1] = estrogenic effectiveness in vivo; settings: applied orally in vivo
[2] = target: T1, steroid sulfatase (Homo sapiens, UniProt P08842); settings: found by M. J. Reed et al.; cited from earlier work
T1 sequence (P08842 22-583): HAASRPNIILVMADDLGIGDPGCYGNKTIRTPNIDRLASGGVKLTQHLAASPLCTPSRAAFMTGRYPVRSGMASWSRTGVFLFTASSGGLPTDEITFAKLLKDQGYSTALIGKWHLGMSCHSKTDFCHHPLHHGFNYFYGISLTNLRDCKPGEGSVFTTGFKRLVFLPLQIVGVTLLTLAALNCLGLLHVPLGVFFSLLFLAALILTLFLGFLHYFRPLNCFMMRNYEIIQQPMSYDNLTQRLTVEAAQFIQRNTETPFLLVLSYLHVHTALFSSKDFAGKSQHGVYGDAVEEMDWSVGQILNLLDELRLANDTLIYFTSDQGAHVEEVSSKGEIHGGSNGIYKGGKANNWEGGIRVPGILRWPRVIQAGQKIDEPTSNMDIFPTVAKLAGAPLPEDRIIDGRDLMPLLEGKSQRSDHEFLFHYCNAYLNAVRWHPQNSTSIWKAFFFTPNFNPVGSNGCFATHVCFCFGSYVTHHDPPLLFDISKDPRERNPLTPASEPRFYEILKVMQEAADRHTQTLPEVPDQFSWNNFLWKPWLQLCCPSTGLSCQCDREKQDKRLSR

SMILES | estrogenic effectiveness compared with estradiol-3-sulfamate ([1]; relative to estradiol-3-sulfamate) | estrogenic effectiveness compared with estriol ([1]; relative to estriol) | sulfatase-inhibiting activity [2]
C[C@]12CC[C@@H]3c4ccc(OS(N)(=O)=O)cc4CC[C@H]3[C@@H]1C[C@@H](Br)[C@@H]2O [16α-bromoestradiol-3-sulfamate, 16α-Bromo-3-sulfamoyloxy-13β-methyl-1,3,5(10)-gonatrien-17β-ol] | three times more effective | five times more effective | –
C[C@]12CC[C@@H]3c4ccc(OS(N)(=O)=O)cc4CC[C@H]3[C@@H]1CC[C@@H]2O [estradiol-3-sulfamate] | – | – | strong sulfatase-inhibiting activity
C[C@]12CC[C@@H]3c4ccc(OS(N)(=O)=O)cc4CC[C@H]3[C@@H]1CCC2=O [estrone-3-sulfamate] | – | – | strong sulfatase-inhibiting activity

Source: patent US6339079B1, “Steroid sulfamates, method for the production and use thereof” (id pharma GmbH, priority 1997, dated 2002)
